Data set [1] relates to ICR mice. In words: Pulmonary toxicity (fibrosis of the lung) in mice. The settings on record: for Incidence: Number of mice with pulmonary fibrosis/Number of mice in the treatment group / Incidence (%) of pulmonary fibrosis / Grade: Total score for pulmonary fibrosis/Total specimens / Grade of pulmonary fibrosis (total score divided by total number of specimens): 5 mg/kg i.p. once daily for 10 days; for Incidence: Number of mice with pulmonary fibrosis/Number of mice in the treatment group / Incidence (%) of pulmonary fibrosis: autopsy after 5 weeks of observation; for Incidence: Number of mice with pulmonary fibrosis/Number of mice in the treatment group: count; for Incidence (%) of pulmonary fibrosis: percentage in parentheses; for Grade: Total score for pulmonary fibrosis/Total specimens / Grade of pulmonary fibrosis (total score divided by total number of specimens): autopsy after 5 weeks, scores 0, 1, 2, 4, 6 points; for Grade: Total score for pulmonary fibrosis/Total specimens: fraction; for Grade of pulmonary fibrosis (total score divided by total number of specimens): value in parentheses; for Grade ratio: grade of the test compound to that of bleomycin complex; for Incidence ratio: incidence of the test compound to that of bleomycin complex.
Description: ICR mice (male, 15-week-old) were used in groups of 10 each. The dose of each test compound was 5 mg/kg injected intraperitoneally once daily for 10 consecutive days. After the administration of the compound was completed, the animals were reared for 5 weeks for observation. Then, the animals were killed and autopsied so that the incidence and grade of pulmonary fibrosis were examined.
The incidence of pulmonary fibrosis was expressed as the number of mice developing pulmonary fibrosis in the group of mice administered the test compound. The grade of pulmonary fibrosis was expressed as the total score for pulmonary fibrosis divided by the total number of specimens.
1 point: Accumulation of exudate in the alveoli, and fibrosis-like changes seen in the alveolar septum.
2 points: Fibrosis seen at several sites.
4 points: Sporadic fibrosis.
6 points: Extensive fibrosis (fibrosis seen in more than 170 of the total region).
The ratio in the table represents the ratio of the incidence of the test compound to that of bleomycin complex, or the ratio of the grade of the test compound to that of bleomycin complex.

Data set [2] concerns Bacillus subtilis. Kind of data set: Antibacterial activity by the agar cylinder plate method, Bacillus subtilis. The data set is classed as cell-based. Particulars: copper-containing compound, standard bleomycin A2 = 1,000 mcg potency/mg. From the text: (§1) (1) Antibacterial activity against Mycobacterium smegmatis ATCC607 and Bacillus subtilis
(§2) The above activity ws determined by the agar cylinder plate method using the above microorganisms.

Data set [3] deals with Mycobacterium smegmatis ATCC 607. Kind of data set: Antibacterial activity by the agar cylinder plate method, Mycobacterium smegmatis ATCC607. The data set is classed as cell-based. The settings on record: copper-containing compound, standard bleomycin A2 = 1,000 mcg potency/mg.
Description: as §1, §2

For the molecule `Cc1c(N)nc(C(CC(N)=O)NCC(N)C(N)=O)nc1C(=O)NC(C(=O)NC(C)C(O)C(C)C(=O)NC(C(=O)NCCc1nc(-c2nc(C(=O)NCCCN(CCCCN(Cc3ccccc3)Cc3ccccc3)Cc3ccccc3)cs2)cs1)C(C)O)C(OC1OC(CO)C(O)C(O)C1OC1OC(CO)C(O)C(OC(N)=O)C1O)c1cnc[nH]1` (stereo not drawn) [Compound 1, 3-[N-benzyl-N-(4'-dibenzylaminobutyl)amino]propylaminobleomycin], in data set [1], the “Incidence: Number of mice with pulmonary fibrosis/Number of mice in the treatment group” value is on record as 0/10, the “Incidence (%) of pulmonary fibrosis” value stood at 0%, the “Grade: Total score for pulmonary fibrosis/Total specimens” value is on record as 0/30 and the “Grade of pulmonary fibrosis (total score divided by total number of specimens)” value was 0. In addition, in data set [1], the Grade ratio came out at 0.00 and the Incidence ratio came to 0.00. Moreover, in data set [2], the “Antibacterial titer of copper-compound” value came to 400 mcg potency/mg. Further, the “Antibacterial titer of copper-compound” value in data set [3] is listed as 17360 mcg potency/mg.
On to `Cc1c(N)nc(C(CC(N)=O)NCC(N)C(N)=O)nc1C(=O)NC(C(=O)NC(C)C(O)C(C)C(=O)NC(C(=O)NCCc1nc(-c2nc(C(=O)NCCCN(CCCCN(Cc3ccc(Cl)cc3)Cc3ccc(Cl)cc3)Cc3ccc(Cl)cc3)cs2)cs1)C(C)O)C(OC1OC(CO)C(O)C(O)C1OC1OC(CO)C(O)C(OC(N)=O)C1O)c1cnc[nH]1` (stereo not drawn) [Compound 2, 3-{N--p-chlorobenzyl-N--[4'-bis(p-chlorobenzyl)aminobutyl]amino}propylaminobleomycin], for which, in data set [1], the “Incidence: Number of mice with pulmonary fibrosis/Number of mice in the treatment group” value was 0/10, the “Incidence (%) of pulmonary fibrosis” value came to 0%, the “Grade: Total score for pulmonary fibrosis/Total specimens” value is reported as 0/30 and the “Grade of pulmonary fibrosis (total score divided by total number of specimens)” value amounted to 0. In addition, in data set [1], the Grade ratio came out at 0.00 and the Incidence ratio amounted to 0.00. Also, the “Antibacterial titer of copper-compound” value in data set [2] worked out at 129 mcg potency/mg. Besides, in data set [3], the “Antibacterial titer of copper-compound” value came to 613 mcg potency/mg.
`Cc1c(N)nc(C(CC(N)=O)NCC(N)C(N)=O)nc1C(=O)NC(C(=O)NC(C)C(O)C(C)C(=O)NC(C(=O)NCCc1nc(-c2nc(C(=O)NCCCN(CCCCN(Cc3ccc(Cl)c(Cl)c3)Cc3ccc(Cl)c(Cl)c3)Cc3ccc(Cl)c(Cl)c3)cs2)cs1)C(C)O)C(OC1OC(CO)C(O)C(O)C1OC1OC(CO)C(O)C(OC(N)=O)C1O)c1cnc[nH]1` (stereo not drawn) [Compound 3, 3-{N--m,p-dichlorobenzyl-N--[4'-bis(m,p-dichlorobenzyl)aminobutyl]amino}propylaminobleomycin]: in data set [1], the “Incidence: Number of mice with pulmonary fibrosis/Number of mice in the treatment group” value is listed as 0/10, the “Incidence (%) of pulmonary fibrosis” value came out at 0%, the “Grade: Total score for pulmonary fibrosis/Total specimens” value is reported as 0/30 and the “Grade of pulmonary fibrosis (total score divided by total number of specimens)” value was 0. In data set [1], the Grade ratio is recorded as 0.00 and the Incidence ratio turned out to be 0.00. Moreover, in data set [2], the “Antibacterial titer of copper-compound” value amounted to 43 mcg potency/mg. For the same molecule, the “Antibacterial titer of copper-compound” value in data set [3] was 217 mcg potency/mg.
For the molecule `COc1ccc(CN(CCCCN(Cc2ccc(OC)cc2)Cc2ccc(OC)cc2)CCCNC(=O)c2csc(-c3csc(CCNC(=O)C(NC(=O)C(C)C(O)C(C)NC(=O)C(NC(=O)c4nc(C(CC(N)=O)NCC(N)C(N)=O)nc(N)c4C)C(OC4OC(CO)C(O)C(O)C4OC4OC(CO)C(O)C(OC(N)=O)C4O)c4cnc[nH]4)C(C)O)n3)n2)cc1` (stereo not drawn) [Compound 4, 3-{N--p-methoxybenzyl-N--[4'-bis(p-methoxybenzyl)aminobutyl]amino}propylaminobleomycin], in data set [1], the “Incidence: Number of mice with pulmonary fibrosis/Number of mice in the treatment group” value is reported as 0/10, the “Incidence (%) of pulmonary fibrosis” value stood at 0%, the “Grade: Total score for pulmonary fibrosis/Total specimens” value was 0/30 and the “Grade of pulmonary fibrosis (total score divided by total number of specimens)” value was found to be 0. Moreover, in data set [1], the Grade ratio came to 0.00 and the Incidence ratio is 0.00. Moreover, the “Antibacterial titer of copper-compound” value in data set [2] turned out to be 197 mcg potency/mg. The “Antibacterial titer of copper-compound” value in data set [3] was 11109 mcg potency/mg.
For the molecule `Cc1ccc(CN(CCCCN(Cc2ccc(C)cc2)Cc2ccc(C)cc2)CCCNC(=O)c2csc(-c3csc(CCNC(=O)C(NC(=O)C(C)C(O)C(C)NC(=O)C(NC(=O)c4nc(C(CC(N)=O)NCC(N)C(N)=O)nc(N)c4C)C(OC4OC(CO)C(O)C(O)C4OC4OC(CO)C(O)C(OC(N)=O)C4O)c4cnc[nH]4)C(C)O)n3)n2)cc1` (stereo not drawn) [Compound 5, 3-{N--p-methylbenzyl-N--[4'-bis(p-methylbenzyl)aminobutyl]amino}propylaminobleomycin], in data set [1], the “Incidence: Number of mice with pulmonary fibrosis/Number of mice in the treatment group” value was 0/10, the “Incidence (%) of pulmonary fibrosis” value is 0%, the “Grade: Total score for pulmonary fibrosis/Total specimens” value is 0/30 and the “Grade of pulmonary fibrosis (total score divided by total number of specimens)” value was determined as 0. Further, in data set [1], the Grade ratio stood at 0.00 and the Incidence ratio was 0.00. Further, the “Antibacterial titer of copper-compound” value in data set [2] is 203 mcg potency/mg. Further, the “Antibacterial titer of copper-compound” value in data set [3] is on record as 4560 mcg potency/mg.
For the molecule `Cc1c(N)nc(C(CC(N)=O)NCC(N)C(N)=O)nc1C(=O)NC(C(=O)NC(C)C(O)C(C)C(=O)NC(C(=O)NCCc1nc(-c2nc(C(=O)NCCCN(CCCCN(CC3CCCCCCC3)CC3CCCCCCC3)CC3CCCCCCC3)cs2)cs1)C(C)O)C(OC1OC(CO)C(O)C(O)C1OC1OC(CO)C(O)C(OC(N)=O)C1O)c1cnc[nH]1` (stereo not drawn) [Compound 6, 3-{N--cyclooctylmethyl-N--[4'-bis(cyclooctylmethyl)aminobutyl]amino}propylaminobleomycin], in data set [1], the “Incidence: Number of mice with pulmonary fibrosis/Number of mice in the treatment group” value is listed as 0/10, the “Incidence (%) of pulmonary fibrosis” value came out at 0%, the “Grade: Total score for pulmonary fibrosis/Total specimens” value was 0/30 and the “Grade of pulmonary fibrosis (total score divided by total number of specimens)” value amounted to 0. Moreover, in data set [1], the Grade ratio is on record as 0.00 and the Incidence ratio is 0.00. The “Antibacterial titer of copper-compound” value in data set [2] is recorded as 61 mcg potency/mg. In addition, in data set [3], the “Antibacterial titer of copper-compound” value came to 530 mcg potency/mg.
With `CCCCCCCCCCN(CCCCCCCCCC)CCCCN(CCCCCCCCCC)CCCNC(=O)c1csc(-c2csc(CCNC(=O)C(NC(=O)C(C)C(O)C(C)NC(=O)C(NC(=O)c3nc(C(CC(N)=O)NCC(N)C(N)=O)nc(N)c3C)C(OC3OC(CO)C(O)C(O)C3OC3OC(CO)C(O)C(OC(N)=O)C3O)c3cnc[nH]3)C(C)O)n2)n1` (stereo not drawn) [Compound 8, 3-{N--n-decyl-N--[4'-bis(n-decyl)-aminobutyl]amino}propylaminobleomycin], in data set [1], the “Incidence: Number of mice with pulmonary fibrosis/Number of mice in the treatment group” value is listed as 0/10, the “Incidence (%) of pulmonary fibrosis” value is 0%, the “Grade: Total score for pulmonary fibrosis/Total specimens” value is reported as 0/30 and the “Grade of pulmonary fibrosis (total score divided by total number of specimens)” value is given as 0. For the same molecule, in data set [1], the Grade ratio was 0.00 and the Incidence ratio was 0.00. Further, the “Antibacterial titer of copper-compound” value in data set [2] is listed as 75 mcg potency/mg. For the same molecule, the “Antibacterial titer of copper-compound” value in data set [3] is on record as 295 mcg potency/mg.
On to `CCCCCN(CCCCC)CCCCN(CCCCC)CCCNC(=O)c1csc(-c2csc(CCNC(=O)C(NC(=O)C(C)C(O)C(C)NC(=O)C(NC(=O)c3nc(C(CC(N)=O)NCC(N)C(N)=O)nc(N)c3C)C(OC3OC(CO)C(O)C(O)C3OC3OC(CO)C(O)C(OC(N)=O)C3O)c3cnc[nH]3)C(C)O)n2)n1` (stereo not drawn) [Compound 9, 3-{N--n-pentyl-N--[4'-bis(n-pentyl)aminobutyl]amino}propylaminobleomycin], for which, in data set [1], the “Incidence: Number of mice with pulmonary fibrosis/Number of mice in the treatment group” value is reported as 0/10, the “Incidence (%) of pulmonary fibrosis” value came to 0%, the “Grade: Total score for pulmonary fibrosis/Total specimens” value is on record as 0/30 and the “Grade of pulmonary fibrosis (total score divided by total number of specimens)” value is 0. In addition, in data set [1], the Grade ratio amounted to 0.00 and the Incidence ratio was 0.00. Besides, the “Antibacterial titer of copper-compound” value in data set [2] is listed as 3520 mcg potency/mg. Moreover, the “Antibacterial titer of copper-compound” value in data set [3] was 57408 mcg potency/mg.
`Cc1c(N)nc(C(CC(N)=O)NCC(N)C(N)=O)nc1C(=O)NC(C(=O)NC(C)C(O)C(C)C(=O)NC(C(=O)NCCc1nc(-c2nc(C(=O)NCCC[N+](C)(C)CCCCN(Cc3ccccc3)Cc3ccccc3)cs2)cs1)C(C)O)C(OC1OC(CO)C(O)C(O)C1OC1OC(CO)C(O)C(OC(N)=O)C1O)c1cnc[nH]1` (stereo not drawn) [Compound 11, 3-[N,N-dimethyl-N-(4'-dibenzyl-aminobutyl)amino]propylaminobleomycin]: the “Antibacterial titer of copper-compound” value is 2528 mcg potency/mg in data set [2] and 20160 mcg potency/mg in data set [3].
With `Cc1c(N)nc(C(CC(N)=O)NCC(N)C(N)=O)nc1C(=O)NC(C(=O)NC(C)C(O)C(C)C(=O)NC(C(=O)NCCc1nc(-c2nc(C(=O)NCCCNCCCCN)cs2)cs1)C(C)O)C(OC1OC(CO)C(O)C(O)C1OC1OC(CO)C(O)C(OC(N)=O)C1O)c1c[nH]cn1` (stereo not drawn) [Compound A5, 3-(4'-aminobutylamino)propylaminobleomycin, reference compound], in data set [1], the “Incidence: Number of mice with pulmonary fibrosis/Number of mice in the treatment group” value is reported as 5/10, the “Incidence (%) of pulmonary fibrosis” value turned out to be 50%, the “Grade: Total score for pulmonary fibrosis/Total specimens” value is reported as 5/30 and the Grade ratio came to 0.29. The Incidence ratio in data set [1] stood at 0.71. Besides, in data set [1] (the values are: mean fibrosis score per specimen), the Grade of pulmonary fibrosis (total score divided by total number of specimens) came out at 0.17.
